According to ChEMBL document CHEMBL1125191, “Synthesis, stereochemistry, and biological activity of the 1-(1-phenyl-2-methylcyclohexyl)piperidines and the 1-(1-phenyl-4-methylcyclohexyl)piperidines. Absolute configuration of the potent trans-(-)-1-(1-phenyl-2-methylcyclohexyl)piperidine” (J Med Chem, 1991):
pKi: −log10 of the molar value.

Key:
[1] = biological target: T1, Glutamate receptor ionotropic, NMDA 1 (Rattus norvegicus, UniProt P35439); test: Binding affinity by displacement of [3H]TCP from PCP N-methyl-D-aspartate glutamate receptor of tissue homogenate preparation of rat brain without cerebellum (in vitro); format: tissue-based
Mus musculus [2] = test: Effective dose after subcutaneous administration using rotarod test in mice; format: functional
[3] = biological target: T1, Glutamate receptor ionotropic, NMDA 1; test: Binding affinity by displacement of [3H]TCP from PCP N-methyl-D-aspartate glutamate receptor of tissue homogenate preparation of rat brain without cerebellum; format: tissue-based
Mus musculus [4] = test: ED50 value by rotarod test on mice at different dosage levels upon subcutaneous administration; format: functional; conditions: sc

| SMILES | pKi [1] | ED50 (Mus musculus [2]) | pKi [3] | ED50 (Mus musculus [4]) | ED50 (Mus musculus [2]; Mus musculus, sc, read-out: ED50) |
| --- | --- | --- | --- | --- | --- |
| CC1CCCCC1(c1ccccc1)N1CCCCC1 (stereo in doubt; (-)-2) | 7.96 | 1.9 mg/kg | – | – | – |
| CC1CCCCC1(C(=N)c1ccccc1)N1CCCCC1 (cis isomer) | – | – | 5.33 | > 100 mg/kg | – |
| CC1CCC(c2ccccc2)(N2CCCCC2)CC1 (stereo in doubt; 17) | 6.21 | >150 mg/kg | – | – | – |
| CC1CCCCC1(c1ccccc1)N1CCCCC1 (stereo in doubt; (+)-2) | 7.00 | 7.5 mg/kg | – | – | – |
| N=C(c1ccccc1)C1(N2CCCCC2)CCCCC1 | – | – | 4.51 | > 100 mg/kg | – |
| CC1CCC(c2ccccc2)(N2CCCCC2)CC1 (stereo in doubt; 18) | 6.78 | 5.5 mg/kg | – | – | – |
| c1ccc(C2(N3CCCCC3)CCCCC2)cc1 [PHENCYCLIDINE] | 7.28 | – | – | – | 4 mg/kg |
| CC1CCCCC1(c1ccccc1)N1CCCCC1 (stereo in doubt; (+)-3) | 5.53 | >100 mg/kg | – | – | – |
| CC1CCCCC1(c1ccccc1)N1CCCCC1 (trans isomer) | 7.60 | 3.3 mg/kg | – | – | – |
| CC1CCCCC1(C(=N)c1ccccc1)N1CCCCC1 (trans isomer) | – | – | 4.64 | – | – |
| CC1CCCCC1(c1ccccc1)N1CCCCC1 (stereo in doubt; 3) | 5.13 | >150 mg/kg | – | – | – |
| CC1CCCCC1(c1ccccc1)N1CCCCC1 (stereo in doubt; (-)-3) | 5.66 | – | – | – | – |
